Data published in publication PMC11401813, “Grewiifopenes A–K, bioactive clerodane diterpenoids from Casearia grewiifolia Vent” (Natural Products and Bioprospecting, 2024).
In brackets after ≈: the same amount, converted by molar mass. Where two headings read alike, the source gives them in different places.

Columns and labels:
[1] = tested on: Staphylococcus epidermidis (ATCC 12228); assay: Antibacterial broth microdilution (MIC/MBC), S. epidermidis; assay type: cell-based; details: ATCC12228
Experimental: (§1) In addition, the isolates were also evaluated for their antibacterial activity towards three strains including Bacillus cereus (ATCC 11778), Staphylococcus aureus (ATCC 6538) and Staphylococcus epidermidis (ATCC 12228) using penicillin G and gentamicin as the antibiotic controls (Table 5). […] Finally, the inhibitory activity of aromatase by using a CYP19 screening kit was investigated. The aromatase (also called estrogen synthase) is responsible for converting the non-aromatic ring A of androgens to estrogens, which are related to the proliferation of breast cancer cells.
(§2) The tested strains, Staphylococcus aureus (S. aureus) ATCC6538, Staphylococcus epidermidis (S. epidermidis) ATCC12228, and Bacillus cereus (B. cereus) ATCC11778 were obtained from the American Type Culture Collection (ATCC).
(§3) All tested species were grown on Mueller Hinton Agar (MHA) and incubated at 37 °C for 18–24 h. The bacterial colonies suspension in sterile normal saline was diluted until they reached a 1 × 10^6 CFC/mL concentration, which was then compared to the McFarland scale. This step provided a standard bacterial suspension (1 × 10^6 CFU/mL), which was used for the following assays.
(§4) The broth microdilution technique was used for the MIC and MBC determination, which was expressed according to Clinical and Laboratory Standards Institute (CLSI) standard M07 guideline. The compounds were prepared as a stock solution by dissolving in dimethyl sulfoxide (DMSO) with the concentration ranging from 0.195 to 200 µg/mL. DMSO and penicillin G or gentamicin were used as normal and standard drug control. […] Three replicates were performed for each experiment.

[2] = tested on: A549 (lung adenocarcinoma); assay: Cytotoxicity, MTT assay, A549; assay type: cell-based, human; details: mean ± s.d. (n = 3); for IC50: Homo sapiens, A549, A549 cell line
Experimental: (§5) The in vitro cytotoxicity assay toward a panel of human cancer cell lines of several clerodane diterpenoids has been well investigated. Thus, the isolates in adequate amounts were tested against MOLT-3 (acute lymphoblastic leukemia), HuCCA-1 (cholangiocarcinoma), HepG2 (hepatocellular carcinoma), A549 (lung adenocarcinoma), HeLa (cervical carcinoma), and MDA-MB-231 (triple negative breast cancer) cancer cell lines using the MTT and XTT methods. Doxorubicin and etoposide were used as positive controls.
(§6) The MTT (3-(4,5-dimethylthiazol-2-yl)-2,5-diphenyltetrazolium bromide) assay was employed for the cytotoxic evaluation against five human cancer cell lines, including HepG2, A549, MDA-MB-231, HeLa, and HuCCA-1, while the XTT (2,3-bis-(2-methoxy-4-nitro-5-sulphenyl)-(2H)-tetrazolium-5-carboxanilide) method was used for MOLT-3 cancer cell.

[3] = tested on: MOLT-3 (acute lymphoblastic leukemia); assay: Cytotoxicity, XTT method, MOLT-3; assay type: cell-based; details: Homo sapiens
Experimental: as §5, §6

[4] = tested on: HepG2 (hepatocellular carcinoma); assay: Cytotoxicity, MTT assay, HepG2; assay type: cell-based, human; details: for IC50: Homo sapiens
Experimental: as §5, §6

[5] = tested on: MDA-MB-231 (triple negative breast cancer); assay: Cytotoxicity, MTT assay, MDA-MB-231; assay type: cell-based, human; details: for IC50: Homo sapiens
Experimental: as §5, §6

[6] = tested on: HuCCA-1 (cholangiocarcinoma); assay: Cytotoxicity, MTT assay, HuCCA-1; assay type: cell-based, human; details: for IC50: Homo sapiens
Experimental: as §5, §6

[7] = tested on: HeLa (cervical carcinoma); assay: Cytotoxicity, MTT assay, HeLa; assay type: cell-based, human; details: for IC50: Homo sapiens, HeLa, read-out: IC50, HeLa
Experimental: as §5, §6

[8] = tested on: Staphylococcus aureus (ATCC 6538); assay: Antibacterial broth microdilution (MIC/MBC), S. aureus; assay type: cell-based; details: ATCC6538
Experimental: as §1, §2, §3, §4

aromatase (CYP19) = target: T1, aromatase (CYP19) (Homo sapiens, UniProt P11511); assay: Aromatase (CYP19) inhibition assay; assay type: biochemical; details: for inhibition at 12.5 µM: at a concentration of 12.5 µM; for Aromatase inhibitory activity (in words): at the concentration up to 12.15 µM
T1 construct: purchased
T1 sequence (P11511 1-503): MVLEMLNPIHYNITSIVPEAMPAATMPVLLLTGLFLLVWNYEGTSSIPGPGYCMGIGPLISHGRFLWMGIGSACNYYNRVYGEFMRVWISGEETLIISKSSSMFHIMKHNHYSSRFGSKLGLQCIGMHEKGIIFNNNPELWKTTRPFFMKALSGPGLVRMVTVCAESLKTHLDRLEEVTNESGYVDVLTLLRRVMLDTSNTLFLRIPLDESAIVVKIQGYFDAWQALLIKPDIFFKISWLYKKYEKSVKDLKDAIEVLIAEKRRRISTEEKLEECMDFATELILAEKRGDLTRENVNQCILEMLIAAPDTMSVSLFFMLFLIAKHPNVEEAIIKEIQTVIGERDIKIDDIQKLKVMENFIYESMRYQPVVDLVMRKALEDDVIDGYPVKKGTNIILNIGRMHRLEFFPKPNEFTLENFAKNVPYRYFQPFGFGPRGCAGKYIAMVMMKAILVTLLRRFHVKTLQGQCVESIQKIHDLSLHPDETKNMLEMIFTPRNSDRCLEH
Experimental: as §1
The aromatase assay used a method previously designed by Stresser and co-workers.

[9] = tested on: Bacillus cereus (ATCC 11778); assay: Antibacterial broth microdilution (MIC/MBC), B. cereus; assay type: cell-based; details: for MBC / MIC: Bacillus cereus, ATCC11778
Experimental: as §1, §2, §3, §4

[10] = tested on: MOLT-3, HuCCA-1, HepG2, A549, HeLa, and MDA-MB-231 cancer cell lines; assay: Cytotoxicity toward panel of human cancer cell lines (MTT and XTT); assay type: cell-based
Text: The in vitro cytotoxicity assay toward a panel of human cancer cell lines of several clerodane diterpenoids has been well investigated. […] Doxorubicin and etoposide were used as positive controls.

[11] = MOLT-3 cell line, XTT, mean ± s.d. (n = 3), read-out: IC50, MOLT-3
[12] = HepG2, HepG2 cell line, MTT, mean ± s.d. (n = 3), read-out: IC50, HepG2
[13] = MDA-MB-231, MDA-MB-231 cell line, MTT, mean ± s.d. (n = 3), read-out: IC50, MDA-MB-231
[14] = HuCC-A1, HuCCA-1 cell line, MTT, mean ± s.d. (n = 3), read-out: IC50, HuCCA-1
[15] = HeLa cell line, MTT, mean ± s.d. (n = 3)

| SMILES | MBC [1] [µg/mL] | MIC [1] [µg/mL] | IC50 [2] [µM] | IC50 [3, 11] [µM] | IC50 [4, 12] [µM] | IC50 [5, 13] [µM] | IC50 [6, 14] [µM] | IC50 [7, 15] [µM] | MBC [8] [µg/mL] | MIC [8] [µg/mL] | inhibition at 12.5 µM (aromatase (CYP19)) [%] | Aromatase inhibitory activity (in words) (aromatase (CYP19)) | MBC [9] [µg/mL] | MIC [9] [µg/mL] | other results |
| --- | --- | --- | --- | --- | --- | --- | --- | --- | --- | --- | --- | --- | --- | --- | --- |
| C=CC(=C)CC[C@]1(C)[C@H](C)C[C@H](OC)[C@@]23C(=C[C@H](OC(=O)[C@@H](C)CC)C[C@@H]12)[C@@H](OC)O[C@H]3OC(C)=O [Compound 11, balanspene F] | > 200 | > 200 | 3 ± 0.4 | 5 ± 1.7 | 14.3 ± 1.5 | 11.4 ± 0.5 | 3.3 ± 0.4 | 10.3 ± 0.5 | > 200 | > 200 | 25 | did not show activity | 25 (≈ 49.5 µM) | 12.5 (≈ 24.8 µM) | MBC, B. cereus (ATCC 11778) [9]: 25 µg/mL (≈ 49.5 µM) |
| C=CC(C)=CCC1(C)C(C)CC(O)C23C(=CC(OC(=O)C(C)CC)CC12)C(OC(C)=O)OC3OC(C)=O (centres unmarked) [Compound 16, Grewiifopene I] |  |  |  |  |  |  |  |  |  |  |  |  |  |  | IC50 ([3]; MOLT-3, read-out: IC50, MOLT-3): 1.2 ± 0.2 µM; IC50 ([4]; HepG2, read-out: IC50, HepG2): 2.9 µM; IC50 ([10]; Homo sapiens, read-out: IC50 range over the cancer cell line panel): 300 to 2900 nM; IC50 ([5]; MDA-MB-231, read-out: IC50, MDA-MB-231): 2 ± 0.1 µM; IC50 ([6]; HuCC-A1, read-out: IC50, HuCCA-1): 0.7 ± 0.02 µM; IC50 [7]: 0.8 ± 0.1 µM |
| COc1cc([C@@H]2OC[C@@H]3[C@H]2CO[C@H]3c2cc(OC)c(O)c(OC)c2)cc(OC)c1O [Compound 19, (−)-syringaresinol] | > 200 | > 200 |  | 75.3 ± 4.9 |  |  |  |  | > 200 | > 200 | 17 | did not show activity | > 200 | > 200 | IC50, A549 ([2]; A549 cell line): I (Inactive for cytotoxicity with < 50% inhibition at a concentration of 50 µg/mL); IC50, HepG2 ([4]; HepG2 cell line, MTT, mean ± s.d. (n = 3)): I (Inactive for cytotoxicity with < 50% inhibition at a concentration of 50 µg/mL); Cytotoxicity against all cell lines (in words) ([10]; even at 50 µg/mL): inactive; IC50, MDA-MB-231 ([5]; MDA-MB-231 cell line, MTT, mean ± s.d. (n = 3)): I (Inactive for cytotoxicity with < 50% inhibition at a concentration of 50 µg/mL); IC50, HuCCA-1 ([6]; HuCCA-1 cell line, MTT, mean ± s.d. (n = 3)): I (Inactive for cytotoxicity with < 50% inhibition at a concentration of 50 µg/mL); IC50, HeLa [7, 15]: I (Inactive for cytotoxicity with < 50% inhibition at a concentration of 50 µg/mL) |
| COC1=CC(=O)C=C(OC)C1(O)CC(C)=O [Compound 20, 4-acetonyl-3,5-dimethoxy-p-quinol] | > 200 | > 200 | 125 ± 4.7 | 10 ± 3.5 | 122 ± 11.3 | 24.4 ± 1.2 | 111 ± 2.2 | 132 ± 3.8 | > 200 | > 200 | 0 | did not show activity | > 200 | > 200 |  |
